The values below come from article PMC3176174 (OncoTargets and therapy, 2011).

Some test systems named below: SEM cell line; B1 cell line; KOPN8 cell line; MOLT-3 cell line; TIB-202 cell line.
Experiment in all cases: cells
Common to all, as to type: cell-based, human

Each structure is given as a SMILES string.

Regarding `CCN(CC)CCCC(C)Nc1c2ccc(Cl)cc2nc2ccc(OC)cc12` (stereo not shown) [Acrichine], the IC50 (usually the concentration that inhibits the measured activity by half) was determined as 6.4 µM in the assay with SEM cell line (Homo sapiens, 96 h); 4.63 µM in the assay on B1 cell line (Homo sapiens, 96 h); 0.722 µM with KOPN8 cell line (Homo sapiens, KOPN-8); 4.07 µM in the assay on MOLT-3 cell line (Homo sapiens, MOLT-3, 96 h); 4.5 µM in the assay with TIB-202 cell line (Homo sapiens, 96 h).
As to `Oc1ncnc2[nH]ncc12` [Allopurinol], the 50% inhibitory concentration (IC50) in the assay with SEM cell line (Homo sapiens, 96 h) is above 10 µM; with B1 cell line (Homo sapiens, 96 h) it was above 10 µM; in the assay on KOPN8 cell line (Homo sapiens, KOPN-8, 96 h), above 5 µM; in the assay with MOLT-3 cell line (Homo sapiens, MOLT-3, 96 h) it was above 10 µM; in the assay with TIB-202 cell line (Homo sapiens, 96 h) it was above 5 µM.
For `CN(C)c1nc(N(C)C)nc(N(C)C)n1` [Altretamine], the IC50 in the assay on SEM cell line (Homo sapiens, 96 h) is above 10 µM; in the assay on B1 cell line (Homo sapiens, 96 h), above 10 µM; in the assay with KOPN8 cell line (Homo sapiens, KOPN-8, 96 h), above 10 µM; in the assay with MOLT-3 cell line (Homo sapiens, MOLT-3, 96 h), above 10 µM; in the assay on TIB-202 cell line (Homo sapiens, 96 h), above 10 µM.
As to `NCCCNCCSP(=O)(O)O` [Amifostine], the concentration for half-maximal inhibition (IC50) with SEM cell line (Homo sapiens, 96 h) is above 10 µM; in the assay with B1 cell line (Homo sapiens, 96 h) it was above 10 µM; in the assay with KOPN8 cell line (Homo sapiens, KOPN-8, 96 h) it was above 10 µM; with MOLT-3 cell line (Homo sapiens, MOLT-3, 96 h), above 10 µM; with TIB-202 cell line (Homo sapiens, 96 h) it was above 10 µM.
Turning to `NCC(=O)CCC(=O)O` [Aminolevulinic acid], the IC50 was above 10 µM with SEM cell line (Homo sapiens, 96 h); above 10 µM with B1 cell line (Homo sapiens, 96 h); above 10 µM in the assay on KOPN8 cell line (Homo sapiens, KOPN-8, 96 h); above 10 µM in the assay on MOLT-3 cell line (Homo sapiens, MOLT-3, 96 h); above 10 µM with TIB-202 cell line (Homo sapiens, 96 h).
Take `CC(C)(C#N)c1cc(Cn2cncn2)cc(C(C)(C)C#N)c1` [Anastrozole]: the IC50 in the assay with SEM cell line (Homo sapiens, 96 h) was 2.08 µM; with B1 cell line (Homo sapiens, 96 h) it was above 10 µM; in the assay on KOPN8 cell line (Homo sapiens, KOPN-8, 96 h), above 10 µM; with MOLT-3 cell line (Homo sapiens, MOLT-3, 96 h), above 10 µM; in the assay on TIB-202 cell line (Homo sapiens, 96 h) it was above 10 µM.
For the molecule `Nc1ncn([C@@H]2O[C@H](CO)[C@@H](O)[C@H]2O)c(=O)n1` [Azacitidine], the concentration for half-maximal inhibition (IC50) in the assay with SEM cell line (Homo sapiens, 96 h) worked out at 1.3 µM; with B1 cell line (Homo sapiens, 96 h), 5.07 µM; with KOPN8 cell line (Homo sapiens, KOPN-8, 96 h) it was 0.836 µM; in the assay with MOLT-3 cell line (Homo sapiens, MOLT-3, 96 h), 6.21 µM; with TIB-202 cell line (Homo sapiens, 96 h), 5.2 µM.
Regarding `CC(C)C[C@H](NC(=O)[C@H](Cc1ccccc1)NC(=O)c1cnccn1)B(O)O` [Bortezomib], the IC50 in the assay on SEM cell line (Homo sapiens, 96 h) was below 0.01 µM; in the assay on B1 cell line (Homo sapiens, 96 h) it was 0.00397 µM; in the assay with KOPN8 cell line (Homo sapiens, KOPN-8, 96 h), below 0.01 µM; with MOLT-3 cell line (Homo sapiens, MOLT-3, 96 h) it was above 10 µM; in the assay with TIB-202 cell line (Homo sapiens, 96 h) it was 0.00571 µM.
Regarding `CS(=O)(=O)OCCCCOS(C)(=O)=O` [Busulfan], the 50% inhibitory concentration (IC50) in the assay with SEM cell line (Homo sapiens, 96 h) is above 10 µM; with B1 cell line (Homo sapiens, 96 h), above 10 µM; in the assay with KOPN8 cell line (Homo sapiens, KOPN-8, 96 h) it was above 5 µM; with MOLT-3 cell line (Homo sapiens, MOLT-3, 96 h), 6.36 µM; with TIB-202 cell line (Homo sapiens, 96 h) it was above 5 µM.
`CCCCCOC(=O)Nc1nc(=O)n([C@@H]2O[C@H](C)[C@@H](O)[C@H]2O)cc1F` [Capecitabine]: the IC50 in the assay on SEM cell line (Homo sapiens, 96 h) was above 10 µM; with B1 cell line (Homo sapiens, 96 h), above 10 µM; with KOPN8 cell line (Homo sapiens, KOPN-8, 96 h) it was above 10 µM; in the assay on MOLT-3 cell line (Homo sapiens, MOLT-3, 96 h), above 10 µM; in the assay on TIB-202 cell line (Homo sapiens, 96 h), above 10 µM.
In the case of `O=NN(CCCl)C(=O)NCCCl` [Carmustine], the IC50 was above 10 µM with SEM cell line (Homo sapiens, 96 h); above 10 µM in the assay with B1 cell line (Homo sapiens, 96 h); above 5 µM in the assay with KOPN8 cell line (Homo sapiens, KOPN-8, 96 h); above 10 µM in the assay on MOLT-3 cell line (Homo sapiens, MOLT-3, 96 h); above 5 µM in the assay on TIB-202 cell line (Homo sapiens, 96 h).
For `Cc1ccc(-c2cc(C(F)(F)F)nn2-c2ccc(S(N)(=O)=O)cc2)cc1` [Celecoxib], the half-maximal inhibitory concentration (IC50) in the assay with SEM cell line (Homo sapiens, 96 h) is above 10 µM; with B1 cell line (Homo sapiens, 96 h), above 10 µM; in the assay on KOPN8 cell line (Homo sapiens, KOPN-8, 96 h), above 10 µM; in the assay with MOLT-3 cell line (Homo sapiens, MOLT-3, 96 h) it was above 10 µM; in the assay with TIB-202 cell line (Homo sapiens, 96 h), above 10 µM.
Regarding `O=C(O)CCCc1ccc(N(CCCl)CCCl)cc1` [Chlorambucil], the IC50 in the assay on SEM cell line (Homo sapiens, 96 h) is 7.29 µM; in the assay with B1 cell line (Homo sapiens, 96 h), 6.41 µM; in the assay on KOPN8 cell line (Homo sapiens, KOPN-8, 96 h), 3.38 µM; in the assay on MOLT-3 cell line (Homo sapiens, MOLT-3, 96 h), 5.56 µM; in the assay on TIB-202 cell line (Homo sapiens, 96 h), 4.47 µM.
`N.N.[Cl][Pt][Cl]` [Cisplatin]: the IC50 with SEM cell line (Table S1, SEM, 96 hours) was above 10 µM; in the assay with B1 cell line (Table S1, B1, 96 hours), above 10 µM; in the assay with KOPN8 cell line (Table S1, KOPN8, 96 hours), above 5 µM; in the assay with MOLT-3 cell line (Table S1, MOLT-3, 96 hours) it was above 10 µM; in the assay on TIB-202 cell line (Table S1, TIB-202, 96 hours), above 5 µM.
Regarding `O=P1(N(CCCl)CCCl)NCCCO1` (stereo not shown) [Cyclophosphamide], the half-inhibitory concentration (IC50) in the assay with SEM cell line (Homo sapiens, 96 h) is above 10 µM; in the assay on B1 cell line (Homo sapiens, 96 h), above 10 µM; with KOPN8 cell line (Homo sapiens, KOPN-8, 96 h), above 5 µM; in the assay with MOLT-3 cell line (Homo sapiens, MOLT-3, 96 h) it was above 10 µM; in the assay on TIB-202 cell line (Homo sapiens, 96 h) it was above 5 µM.
`CN(C)/N=N/c1[nH]cnc1C(N)=O` [Dacarbazine]: the IC50 was above 10 µM in the assay with SEM cell line (Homo sapiens, 96 h); above 10 µM in the assay with B1 cell line (Homo sapiens, 96 h); above 10 µM in the assay with KOPN8 cell line (Homo sapiens, KOPN-8, 96 h); above 10 µM in the assay on MOLT-3 cell line (Homo sapiens, MOLT-3, 96 h); above 10 µM in the assay on TIB-202 cell line (Homo sapiens, 96 h).
Take `Cc1nc(Nc2ncc(C(=O)Nc3c(C)cccc3Cl)s2)cc(N2CCN(CCO)CC2)n1` [Dasatinib]: the concentration for half-maximal inhibition (IC50) in the assay on SEM cell line (Homo sapiens, 96 h) was 4.05 µM; with B1 cell line (Homo sapiens, 96 h), below 1e-06 µM; with KOPN8 cell line (Homo sapiens, KOPN-8, 96 h), 0.00748 µM; in the assay with MOLT-3 cell line (Homo sapiens, MOLT-3, 96 h), above 10 µM; in the assay with TIB-202 cell line (Homo sapiens, 96 h), below 1e-06 µM.
For `C[C@@H](CN1CC(=O)NC(=O)C1)N1CC(=O)NC(=O)C1` [Dexrazoxone], the IC50 in the assay with SEM cell line (Homo sapiens, 96 h) is above 10 µM; in the assay with B1 cell line (Homo sapiens, 96 h), above 10 µM; in the assay with KOPN8 cell line (Homo sapiens, KOPN-8, 96 h), above 5 µM; with MOLT-3 cell line (Homo sapiens, MOLT-3, 96 h), above 10 µM; with TIB-202 cell line (Homo sapiens, 96 h), above 5 µM.
Turning to `COc1cccc2c1C(=O)c1c(O)c3c(c(O)c1C2=O)C[C@@](O)(C(=O)CO)C[C@@H]3O[C@H]1C[C@H](N)[C@H](O)[C@H](C)O1` [Doxorubicin], the 50% inhibitory concentration (IC50) in the assay on SEM cell line (Homo sapiens, 96 h) is below 0.01 µM; in the assay on B1 cell line (Homo sapiens, 96 h), 0.12 µM; in the assay on KOPN8 cell line (Homo sapiens, KOPN-8, 96 h), below 0.01 µM; with MOLT-3 cell line (Homo sapiens, MOLT-3, 96 h) it was 7.84 µM; in the assay with TIB-202 cell line (Homo sapiens, 96 h) it was 0.0585 µM.
On to `C#Cc1cccc(Nc2ncnc3cc(OCCOC)c(OCCOC)cc23)c1` [Erlotinib], for which the 50% inhibitory concentration (IC50) is 1 µM with SEM cell line (Homo sapiens, 96 h); 2.98 µM in the assay on B1 cell line (Homo sapiens, 96 h); 5.82 µM with KOPN8 cell line (Homo sapiens, KOPN-8, 96 h); 5.7 µM in the assay on MOLT-3 cell line (Homo sapiens, MOLT-3, 96 h); 6.68 µM in the assay on TIB-202 cell line (Homo sapiens, 96 h).
In the case of `C[C@]12CC[C@@H]3c4ccc(OC(=O)N(CCCl)CCCl)cc4CC[C@H]3[C@@H]1CC[C@@H]2O` [Estramustine], the half-inhibitory concentration (IC50) in the assay with SEM cell line (Homo sapiens, 96 h) is above 10 µM; with B1 cell line (Homo sapiens, 96 h) it was above 10 µM; with KOPN8 cell line (Homo sapiens, KOPN-8, 96 h), above 10 µM; in the assay with MOLT-3 cell line (Homo sapiens, MOLT-3, 96 h), above 10 µM; in the assay with TIB-202 cell line (Homo sapiens, 96 h), above 10 µM.
On to `CO[C@H]1C[C@@H]2CC[C@@H](C)[C@@](O)(O2)C(=O)C(=O)N2CCCC[C@H]2C(=O)O[C@H]([C@H](C)C[C@@H]2CC[C@@H](OCCO)[C@H](OC)C2)CC(=O)[C@H](C)/C=C(\C)[C@@H](O)[C@@H](OC)C(=O)[C@H](C)C[C@H](C)/C=C/C=C/C=C/1C` [Everolimus], for which the IC50 in the assay with SEM cell line (Homo sapiens, 96 h) was below 0.01 µM; in the assay on B1 cell line (Homo sapiens, 96 h), 0.834 µM; in the assay with KOPN8 cell line (Homo sapiens, KOPN-8, 96 h), below 0.01 µM; with MOLT-3 cell line (Homo sapiens, MOLT-3, 96 h) it was above 10 µM; with TIB-202 cell line (Homo sapiens, 96 h) it was below 0.01 µM.
With `C=C1C[C@@H]2[C@H](CC[C@]3(C)C(=O)CC[C@@H]23)[C@@]2(C)C=CC(=O)C=C12` [Exemestane], the IC50 is 2.08 µM in the assay on SEM cell line (Homo sapiens, 96 h); above 10 µM in the assay with B1 cell line (Homo sapiens, 96 h); 8.89 µM in the assay with KOPN8 cell line (Homo sapiens, KOPN-8, 96 h); above 10 µM in the assay on MOLT-3 cell line (Homo sapiens, MOLT-3, 96 h); above 10 µM in the assay with TIB-202 cell line (Homo sapiens, 96 h).
As for `O=c1[nH]c(=O)n([C@H]2C[C@H](O)[C@@H](CO)O2)cc1F` [Floxuridine], the half-maximal inhibitory concentration (IC50) with SEM cell line (Homo sapiens, 96 h) is above 10 µM; in the assay with B1 cell line (Homo sapiens, 96 h) it was 8.48 µM; in the assay with KOPN8 cell line (Homo sapiens, KOPN-8, 96 h), above 5 µM; in the assay on MOLT-3 cell line (Homo sapiens, MOLT-3, 96 h), above 10 µM; in the assay on TIB-202 cell line (Homo sapiens, 96 h), above 5 µM.
`O=c1[nH]cc(F)c(=O)[nH]1` [Fluorouracil]: the IC50 in the assay with SEM cell line (Homo sapiens, 96 h) is above 10 µM; in the assay with B1 cell line (Homo sapiens, 96 h) it was above 10 µM; in the assay with KOPN8 cell line (Homo sapiens, KOPN-8, 96 h) it was above 5 µM; in the assay with MOLT-3 cell line (Homo sapiens, MOLT-3, 96 h) it was 7.11 µM; in the assay with TIB-202 cell line (Homo sapiens, 96 h), above 5 µM.
Consider `C[C@]12CC[C@@H]3c4ccc(O)cc4C[C@@H](CCCCCCCCC[S+]([O-])CCCC(F)(F)C(F)(F)F)[C@H]3[C@@H]1CC[C@@H]2O` (stereo partly shown) [Fulvestrant], for which the half-inhibitory concentration (IC50) is above 10 µM in the assay with SEM cell line (Homo sapiens, 96 h); above 10 µM in the assay with B1 cell line (Homo sapiens, 96 h); 7.64 µM in the assay on KOPN8 cell line (Homo sapiens, KOPN-8, 96 h); above 10 µM with MOLT-3 cell line (Homo sapiens, MOLT-3, 96 h); above 10 µM in the assay with TIB-202 cell line (Homo sapiens, 96 h).
